≈ marks a conversion by molar mass, not a printed value.
What was measured:
[1] = cited from earlier work
Description: The native EntA was stable at 100°C and acidic pH conditions. […] These properties were potentially due to the higher cysteine content of the antimicrobial peptides, similar to the EntA containing four cysteine residues. In addition, the antimicrobial activity of some bacteriocins (nisin, sakacin P and curvacin A) was si ...

L. ivanovii ATCC19119 [2] = assay: In-vitro killing curve (time-kill) assay; format: cell-based, Listeria ivanovii; details: 2 × MIC, 10 h time-kill
Description: To evaluate the antibacterial activity of rEntA against L. ivanovii ATCC19119, a time-kill assay was performed as described by the methods of Mao [32]. In addition, tubes with only bacterial inoculum were used as growth controls. All experiments were performed in triplicate.

L. ivanovii ATCC19119 [3] = assay: MIC and MBC, microtiter broth dilution method; format: cell-based; details: Listeria ivanovii, triplicate
Description: Minimal inhibitory concentrations (MICs) and Minimum bactericidal concentrations (MBCs) assays were determined using the microtiter broth dilution method. Ampicillin was also tested with the same concentration gradient as a positive control. All tests were performed in triplicate.

[4] = tested on: digestive proteases trypsin and pepsin; details: cited from earlier work
Source text: Similarly, the purified rEntA, with 12.76% basic amino acids and 10.63% aromatic amino acids, was inactivated with trypsin and pepsin (Figure 4C). This high sensitivity to digestive proteases of rEntA contributes to its safety in foods and drugs, during and after oral administration.

nisin: class I bacteriocin, widely used in commerce (ITSISLCTPGCKTGALMGCNMKTATCHCSIHVSK; not fully specified; Lantibiotic nisin-A; UniProt P13068 24-57, looked up)
effect of NaCl on antimicrobial activity ([1]; addition of NaCl from 0 to 1.17 M): significantly enhanced

CC1(C)S[C@@H]2[C@H](NC(=O)[C@H](N)c3ccccc3)C(=O)N2[C@H]1C(=O)O [ampicillin]
growth of survivors after MVL (L. ivanovii ATCC19119 [2]): resumed growth
MBC (L. ivanovii ATCC19119 [3]): 1.56 µg/mL (≈ 4.46 µM)
MIC (L. ivanovii ATCC19119 [3]): 0.39 µg/mL (≈ 1.12 µM)

pediocin PA-1: class IIa bacteriocin (KYYGNGVTCGKHSCSVDWGKATTCIINNGAMAWATGGHQGNHKC; UniProt P29430 19-62, looked up)
bactericidal activity and overall structure at higher temperatures [1]: well maintained
sensitivity to trypsin and pepsin [4]: very sensitive

Source: PMC4160546, “Biotechnical paving of recombinant enterocin A as the candidate of anti-Listeria agent” (BMC Microbiology, 2014)
